Assay results as given in ChEMBL document CHEMBL1201862, “PubChem BioAssay data set” (2004).
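All cell lines were grown in 96-well plates and treated with compound for 48 hours. Here, GI50 denotes the concentration required for 50% inhibition of growth.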 Calls of active or inactive are those of the source. Cut-off read from the data, not from the text of the source: active = GI50 up to about 1.1 µM and inactive = higher.

Columns and labels:
Test in all cases: inhibition of tumour cell growth, NCI panel, 48 h
[1] = test system: COLO 205
[2] = test system: KM12
[3] = test system: KM-20L2
[4] = test system: 786-0
[5] = test system: DLD-1
[6] = test system: EKVX
[7] = test system: Malme-3M
[8] = test system: SNB-78
[9] = test system: SF-295
[10] = test system: OVCAR-3
[11] = test system: OVCAR-5
[12] = test system: SK-MEL-5
[13] = test system: LXFL 529
[14] = test system: NCI-H460
[15] = test system: HOP-62
[16] = test system: CAKI-1
[17] = test system: ACHN
[18] = test system: SK-MEL-28
[19] = test system: OVCAR-8
[20] = test system: HOP-92
[21] = test system: HCT-15
[22] = test system: SNB-19
[23] = test system: RXF 631
[24] = test system: NCI-H226
[25] = test system: RPMI-8226
[26] = test system: CCRF-CEM
[27] = test system: SF-268
[28] = test system: A498
[29] = test system: HL-60
[30] = test system: SW-620
[31] = test system: HCC 2998
[32] = test system: A549
[33] = test system: HCT-116
[34] = test system: UACC-257
[35] = test system: NCI-H23
[36] = test system: TK-10
[37] = test system: DMS-273
[38] = test system: SNB-75
[39] = test system: M14
[40] = test system: NCI-H522
[41] = test system: HT-29
[42] = test system: SF-539
[43] = test system: U-251
[44] = test system: DMS-114
[45] = test system: HOP-18
[46] = test system: UACC-62
[47] = test system: K562
[48] = test system: SR
[49] = test system: M19-MEL
[50] = test system: SN12C
[51] = test system: XF498
[52] = test system: OVCAR-4
[53] = test system: SK-OV-3
[54] = test system: LOX IMVI
[55] = test system: UO-31
[56] = test system: MOLT-4
[57] = test system: IGROV-1
[58] = test system: SK-MEL-2
[59] = test system: RXF 393

Compound: Clc1ccc(Cl)c2[s+]snc12
- GI50 [1]: > 43.1 µM (inactive)
- GI50 [2]: > 67.5 µM (inactive)
- GI50 [3]: > 100 µM (inactive)
- GI50 [4]: > 40.9 µM (inactive)
- GI50 [5]: 44.6 µM (inactive)
- GI50 [6]: > 100 µM (inactive)
- GI50 [7]: > 49.5 µM (inactive)
- GI50 [8]: > 100 µM (inactive)
- GI50 [9]: > 76.6 µM (inactive)
- GI50 [10]: > 63.5 µM (inactive)
- GI50 [11]: > 100 µM (inactive)
- GI50 [12]: 76 µM (inactive)
- GI50 [13]: 34.2 µM (inactive)
- GI50 [14]: 30.7 µM (inactive)
- GI50 [15]: > 85.3 µM (inactive)
- GI50 [16]: > 100 µM (inactive)
- GI50 [17]: > 79.1 µM (inactive)
- GI50 [18]: > 100 µM (inactive)
- GI50 [19]: 40.3 µM (inactive)
- GI50 [20]: > 60.7 µM (inactive)
- GI50 [21]: 29.4 µM
- GI50 [22]: > 93.5 µM (inactive)
- GI50 [23]: > 94.6 µM (inactive)
- GI50 [24]: > 100 µM (inactive)
- GI50 [25]: > 48.6 µM (inactive)
- GI50 [26]: 50.8 µM (inactive)
- GI50 [27]: 46.8 µM (inactive)
- GI50 [28]: > 100 µM (inactive)
- GI50 [29]: 50.7 µM (inactive)
- GI50 [30]: 23.6 µM (inactive)
- GI50 [31]: > 100 µM (inactive)
- GI50 [32]: > 100 µM (inactive)
- GI50 [33]: 21.6 µM (inactive)
- GI50 [34]: > 93.3 µM (inactive)
- GI50 [35]: > 100 µM (inactive)
- GI50 [36]: > 100 µM (inactive)
- GI50 [37]: 27 µM (inactive)
- GI50 [38]: 41.2 µM (inactive)
- GI50 [39]: 55.6 µM (inactive)
- GI50 [40]: 18.1 µM (inactive)
- GI50 [41]: 25 µM (inactive)
- GI50 [42]: 46 µM (inactive)
- GI50 [43]: 38.6 µM (inactive)
- GI50 [44]: 24.9 µM (inactive)
- GI50 [45]: > 100 µM (inactive)
- GI50 [46]: 43.4 µM (inactive)
- GI50 [47]: > 45.8 µM (inactive)
- GI50 [48]: > 100 µM (inactive)
- GI50 [49]: 54.7 µM (inactive)
- GI50 [50]: > 79.3 µM (inactive)
- GI50 [51]: > 100 µM (inactive)
- GI50 [52]: > 100 µM (inactive)
- GI50 [53]: > 100 µM (inactive)
- GI50 [54]: 31 µM (inactive)
- GI50 [55]: > 100 µM (inactive)
- GI50 [56]: > 79.6 µM (inactive)
- GI50 [57]: > 100 µM (inactive)

Compound: Cc1ccc(C2(O)CC(c3ccc([N+](=O)[O-])o3)=NN2C(=O)COc2ccccc2Cl)cc1 (stereo unspecified)
- GI50 [1]: 3.78 µM (inactive)
- GI50 [2]: 8.83 µM (inactive)
- GI50 [3]: 8.65 µM (inactive)
- GI50 [4]: 5.75 µM (inactive)
- GI50 [5]: 6.08 µM (inactive)
- GI50 [6]: 13.6 µM (inactive)
- GI50 [7]: 13.8 µM (inactive)
- GI50 [8]: 42.6 µM (inactive)
- GI50 [9]: 15.3 µM (inactive)
- GI50 [10]: 3.94 µM (inactive)
- GI50 [11]: 32.7 µM (inactive)
- GI50 [12]: 2.75 µM (inactive)
- GI50 [13]: 6.59 µM (inactive)
- GI50 [14]: 5.73 µM (inactive)
- GI50 [15]: 29.2 µM (inactive)
- GI50 [16]: 19.4 µM (inactive)
- GI50 [17]: 5.08 µM (inactive)
- GI50 [18]: 15.2 µM (inactive)
- GI50 [19]: 11.2 µM (inactive)
- GI50 [20]: 27.4 µM (inactive)
- GI50 [21]: 4.68 µM
- GI50 [22]: 14.8 µM (inactive)
- GI50 [23]: 6.87 µM (inactive)
- GI50 [24]: 50.5 µM (inactive)
- GI50 [25]: 3.53 µM (inactive)
- GI50 [26]: 5.45 µM (inactive)
- GI50 [27]: 10.5 µM (inactive)
- GI50 [28]: 12.9 µM (inactive)
- GI50 [29]: 2.84 µM (inactive)
- GI50 [30]: 6.7 µM (inactive)
- GI50 [58]: 8.07 µM (inactive)
- GI50 [31]: 10.4 µM (inactive)
- GI50 [32]: 18.1 µM (inactive)
- GI50 [33]: 5.6 µM (inactive)
- GI50 [34]: 8.18 µM (inactive)
- GI50 [35]: 12.4 µM (inactive)
- GI50 [36]: 35.7 µM (inactive)
- GI50 [37]: 12.9 µM (inactive)
- GI50 [38]: 15.3 µM (inactive)
- GI50 [39]: 8.45 µM (inactive)
- GI50 [40]: 13.1 µM (inactive)
- GI50 [41]: 4.21 µM (inactive)
- GI50 [42]: 17.4 µM (inactive)
- GI50 [43]: 9.68 µM (inactive)
- GI50 [44]: 12.8 µM (inactive)
- GI50 [45]: 20.6 µM (inactive)
- GI50 [46]: 3.91 µM (inactive)
- GI50 [47]: 7.26 µM (inactive)
- GI50 [48]: 3.24 µM (inactive)
- GI50 [49]: 3.69 µM (inactive)
- GI50 [50]: 8.22 µM (inactive)
- GI50 [51]: 16.9 µM (inactive)
- GI50 [52]: 17.3 µM (inactive)
- GI50 [53]: 81.1 µM (inactive)
- GI50 [54]: 5.45 µM (inactive)
- GI50 [55]: 12.5 µM (inactive)
- GI50 [56]: 3.91 µM (inactive)
- GI50 [57]: 15.9 µM (inactive)

Compound: O=C1CN=C(c2ccccc2)c2ccncc2N1
- GI50 [1]: > 100 µM (inactive)
- GI50 [2]: 16.2 µM (inactive)
- GI50 [3]: > 100 µM (inactive)
- GI50 [4]: > 100 µM (inactive)
- GI50 [5]: > 100 µM (inactive)
- GI50 [6]: > 100 µM (inactive)
- GI50 [7]: > 100 µM (inactive)
- GI50 [8]: > 100 µM (inactive)
- GI50 [9]: > 100 µM (inactive)
- GI50 [10]: > 100 µM (inactive)
- GI50 [11]: > 100 µM (inactive)
- GI50 [12]: > 100 µM (inactive)
- GI50 [13]: > 100 µM (inactive)
- GI50 [15]: > 100 µM (inactive)
- GI50 [16]: > 100 µM (inactive)
- GI50 [17]: > 100 µM (inactive)
- GI50 [59]: > 100 µM (inactive)
- GI50 [18]: > 100 µM (inactive)
- GI50 [19]: > 100 µM (inactive)
- GI50 [20]: > 100 µM (inactive)
- GI50 [22]: > 100 µM (inactive)
- GI50 [23]: > 100 µM (inactive)
- GI50 [24]: > 100 µM (inactive)
- GI50 [26]: > 100 µM (inactive)
- GI50 [27]: > 100 µM (inactive)
- GI50 [28]: > 100 µM (inactive)
- GI50 [29]: > 100 µM (inactive)
- GI50 [30]: > 100 µM (inactive)
- GI50 [58]: > 100 µM (inactive)
- GI50 [31]: > 100 µM (inactive)
- GI50 [32]: > 100 µM (inactive)
- GI50 [33]: > 100 µM (inactive)
- GI50 [34]: 26.6 µM (inactive)
- GI50 [35]: > 100 µM (inactive)
- GI50 [36]: 33.3 µM (inactive)
- GI50 [37]: > 100 µM (inactive)
- GI50 [38]: > 100 µM (inactive)
- GI50 [39]: > 100 µM (inactive)
- GI50 [40]: > 100 µM (inactive)
- GI50 [41]: > 100 µM (inactive)
- GI50 [42]: > 100 µM (inactive)
- GI50 [43]: > 100 µM (inactive)
- GI50 [44]: > 100 µM (inactive)
- GI50 [45]: > 100 µM (inactive)
- GI50 [46]: > 100 µM (inactive)
- GI50 [47]: > 100 µM (inactive)
- GI50 [48]: > 100 µM (inactive)
- GI50 [49]: > 100 µM (inactive)
- GI50 [50]: > 100 µM (inactive)
- GI50 [51]: > 100 µM (inactive)
- GI50 [52]: > 100 µM (inactive)
- GI50 [53]: > 100 µM (inactive)
- GI50 [54]: > 100 µM (inactive)
- GI50 [55]: > 100 µM (inactive)
- GI50 [56]: > 100 µM (inactive)
- GI50 [57]: > 100 µM (inactive)
